Assay results: patent US11130781B2, “Antimicrobial peptides and their use” (UNIVERSITEIT UTRECHT HOLDING B.V., priority 2017, dated 2021)
Read-outs that look alike come from different tables or passages of the source. Where no end group is shown, it is not given here.

Columns and labels:
Format in all cases: cell-based
[1] = test system: Pseudomonas aeruginosa; settings: 18 h
Experimental: (§1) Bacteria (2×10E6 CFU/ml) were suspended in MHB+0.9% NaCl and were mixed 1:1 (vol/vol) with peptides dissolved in the same medium in various concentrations (final conc. 0-10 μM) and added to Bioscreen C analyzer plates (Oy Growth Curves Ab Ltd., Helsinki, Finland) and incubated for 18 h at 37° C. while shaking (200 rpm) in a Bioscreen C analyzer (Oy Growth Curves Ab Ltd). The OD (600 nm) was measured every 15 min. Minimal Inhibitory Concentrations (MIC values) were assessed for each peptide.

[2] = test system: Staphylococcus aureus; settings: 18 h
Experimental: as §1

[3] = test system: primary human nasal epithelial cells; experiment: Toxicity measurement (WST-1 conversion); parameters: Toxicity: key to the marks not given beside the values
Experimental: The cytotoxic effect of all peptides was determined as previously described (2) using primary human nasal epithelial cells, obtained by nasal brushing of healthy individuals.
Cells were grown to confluence in 96-well plates in Bronchial Epithelial Cell Growth Medium (BEPC, Lonza) at 37° C. and 5% CO2. Peptides were diluted in the same medium to a final concentration of 5 μM and applied to the washed (PBS, twice) cells and incubated for 3 hours or 24 hours at 37° C. After incubation, the medium was removed, cells were washed twice (PBS) and fresh BEPC containing 10% (v/v) cell proliferation reagent WST-1 (Roche) was added to each well.
Conversion of WST-1 is indicative for cell viability and reduced conversion by cells is a measure for cytotoxic effects exerted by peptides. After incubation for 30 minutes at 37° C. the absorbance of each well was measured at 450 nm and 650 nm (reference wavelength). Controls included cells exposed to peptide-free medium (set to 100% WST-1 conversion) and wells without cells (background). Results are based upon 5 individual experiments and defined as follows: “0”, no toxicity; “+”, weakly toxic; “++”, moderately toxic; “+++”, toxic; “++++”, very toxic.

Molecule | Bioscreen MIC values Pseudomonas aeruginosa [1] [µM] | Bioscreen MIC values Staphylococcus aureus [2] [µM] | toxicity, in words [3] | Toxicity ([3]; peptide 5 μM, 3 hours or 24 hours, WST-1 conversion) | toxicity, in words ([3]; primary human nasal epithelial cells)
APKAMRRWVQRWIRRWRPKVLLHYPSQKF-NH2 [SEQ ID NO: 23] | 2.5 | >10 | – | – | –
RRWVQRWIRRWRPWV-NH2 [SEQ ID NO: 6, RRWVQRWIRRWRPWV] | 2.5 | 10 | – | – | –
RFGRFLRKIRRFRPKVTITIQGSARF-NH2 [SEQ ID NO: 2, reference compound] | 1.25 | 1.25 | extremely toxic | – | –
CC[C@H](C)[C@H](NC(=O)[C@H](CCCCN)NC(=O)[C@H](CCC(=O)O)NC(=O)[C@H](CCCCN)NC(=O)[C@H](CO)NC(=O)[C@H](CCCCN)NC(=O)[C@H](CCCNC(=N)N)NC(=O)[C@H](Cc1ccccc1)NC(=O)[C@H](Cc1ccccc1)NC(=O)[C@H](CC(=O)O)NC(=O)CNC(=O)[C@H](CC(C)C)NC(=O)[C@@H](N)CC(C)C)C(=O)NCC(=O)N[C@@H](CCCCN)C(=O)N[C@@H](CCC(=O)O)C(=O)N[C@@H](Cc1ccccc1)C(=O)N[C@@H](CCCCN)C(=O)N[C@@H](CCCNC(=N)N)C(=O)N[C@H](C(=O)N[C@H](C(=O)N[C@@H](CCC(N)=O)C(=O)N[C@@H](CCCNC(=N)N)C(=O)N[C@H](C(=O)N[C@@H](CCCCN)C(=O)N[C@@H](CC(=O)O)C(=O)N[C@@H](Cc1ccccc1)C(=O)N[C@@H](CC(C)C)C(=O)N[C@@H](CCCNC(=N)N)C(=O)N[C@@H](CC(N)=O)C(=O)N[C@@H](CC(C)C)C(=O)N[C@H](C(=O)N1CCC[C@H]1C(=O)N[C@@H](CCCNC(=N)N)C(=O)N[C@H](C(=O)N[C@@H](CCC(=O)O)C(=O)N[C@@H](CO)C(N)=O)[C@@H](C)O)C(C)C)[C@@H](C)CC)C(C)C)[C@@H](C)CC [SEQ ID NO: 1] | – | – | – | ++ | more toxic
RRWVQRWIRRWRPKVAAARRWVQRWIRRWRPKV-NH2 [SEQ ID NO: 12] | 1.25 | 1.25 | – | – | –
APKAMRRWVQRWIRRWRPRLQKKGI-NH2 [SEQ ID NO: 19] | 5 | >10 | – | – | –
APKAMWVQRWIRRWRPLQKKGI-NH2 [SEQ ID NO: 27] | >10 | >10 | weakly toxic | – | –
APKAMRRWVQRWIRRWRPLQKKGI-NH2 [SEQ ID NO: 20] | 10 | >10 | – | – | –
RRWVRRWIRRWRPKV-NH2 [SEQ ID NO: 25, RRWVRRWIRRWRPKV] | 5 | >10 | – | – | –
RRWVQRWIRRWRKVAAARRWVQRWIRRWRPKV-NH2 [SEQ ID NO: 13] | 1.25 | 1.25 | – | – | –
RRWVQRWIRRWRPKVLQKKGI-NH2 [SEQ ID NO: 14] | 10 | >10 | – | – | –
RRWVQRWIRRWRPKVAAARRWV-NH2 [SEQ ID NO: 10] | 1.25 | 10 | – | – | –
RRWVQRWIRRWRPKW-NH2 [SEQ ID NO: 9, RRWVQRWIRRWRPKW] | 5 | 10 | – | – | –
RRWVQRWIRRWRKWV-NH2 [SEQ ID NO: 7, RRWVQRWIRRWRKWV] | 1.25 | 2.5 | – | – | –
RRWVQRWIRRWRPK-NH2 [SEQ ID NO: 8, RRWVQRWIRRWRPK] | 10 | >10 | – | – | –
APKAMRWVQRWIRRWRPKLQKKGI-NH2 [SEQ ID NO: 26] | 10 | >10 | – | – | –
RRWVQRWIRRWRPKRIVQRIKDFLRNLV-NH2 [SEQ ID NO: 11] | 1.25 | 2.5 | – | – | –
APKAMRRWVQRWIRRWRPRV-NH2 [SEQ ID NO: 17] | 5 | >10 | – | – | –
APKAMRRWVQRWIRRWRPKVLQKNNYL-NH2 [SEQ ID NO: 21] | 2.5 | >10 | – | – | –
APKAMRRWVQRWIRRWRPKVFQVTGSSA-NH2 [SEQ ID NO: 22] | 10 | >10 | – | – | –
APKAMRRWVQRWIRRWRPKVLQKKGI-NH2 [SEQ ID NO: 18] | 5 | >10 | – | – | –
RRWVQRWIRRWRPKLQKKGI-NH2 [SEQ ID NO: 16] | 10 | >10 | – | – | –
